Assay results as given in ChEMBL document CHEMBL1157539, “Thousands of chemical starting points for antimalarial lead identification” (Nature, 2010).
“And” between values parts separate entries of the source, which are not always exact repeats. Equal entries are not always repeated.

System: Plasmodium falciparum
Experiment: GSK_TCMDC: Inhibition of Plasmodium falciparum 3D7 in whole erythrocytes, using parasite LDH activity as an index of growth.
Assay type: functional, organism-based

Row | Structure (SMILES) | XC50 (Plasmodium falciparum, 3D7) [nM] | XC50
1 | OC(c1cc(C(F)(F)F)nc2c(F)cccc12)C1CCCCN1 (configuration not stated) | 782 | 
2 | COC(=O)c1cccc(NC(=O)NC2CCN(c3ccnc(Nc4ccc(OC)cc4)n3)C2)c1 (configuration not stated) | 472 | 
3 | O=C(NC(CCCN1CCC2(CC1)OCc1ccccc12)c1ccc(Cl)c(Cl)c1)c1cc(C(F)(F)F)cc(C(F)(F)F)c1 (configuration not stated) | 543 | 
4 | Cc1ccc(-c2ccc3c(c2)C=C(C(=O)NCC2CCN(CC4CCN(C(=O)/C=C/c5ccc(Cl)c(Cl)c5)CC4)CC2)CCC3)cc1 | 777 | 
5 | O=C(/C=C/c1ccc(Cl)c(Cl)c1)NCCCCCN1CCC(C(=O)Nc2ccc3c(c2)OCO3)CC1 | 839 | 
6 | Cc1cccc2nc(-c3ccc(-c4ccc(CNCCNC(=O)c5ccnn5C)cc4)cc3)[nH]c12 | 480 | 
7 | CCc1cccc(NC(=O)/C=C/c2ccc3c(c2)CN(C)CC3)c1 | 767 | 
8 | O=C(NCCCCN1CCC(c2ccc3c(c2OCCO)CCCC3)CC1)c1ccc(-c2ccc(C(F)(F)F)cc2)cc1 | 855 | 
9 | CCC(C)CNC(=O)CN1CN(c2ccccc2)C2(CCN(C(=O)c3ccc(Br)cc3)CC2)C1=O (configuration not stated) | 1070 | 
10 | COc1cc(Nc2ccnc3cc(-c4nccs4)ccc23)ccc1OCCCc1nc2ccccc2[nH]1 | 237 | 
11 | Cc1nc(-c2ccccc2)nc(N2CCN(C(=O)c3ccco3)CC2)c1Cc1ccccc1F | 927 | 
12 | CC(C)C[C@H](NC(=O)c1ccc(F)cc1)C(=O)N[C@H](/C=N/NC(=O)c1ccccc1)CCc1ccccc1 | 812 | 
13 | COc1cccc(C2CCN(CCN3CCC(NC(=O)c4ccc(-c5ccc(C#N)cc5)cc4)CC3)CC2)c1 | 699 | 
14 | Cc1cc2nc(N/C(N)=N/C(=O)NC3CCCCC3)nc(C)c2cc1C | 754 | 
15 | N#Cc1ccc(N2CCN(Cc3cccc(-c4ccc(-c5nc6cc(C(F)(F)F)ccc6[nH]5)s4)c3)CC2)nc1 | 1040 | 
16 | COc1ccc2nc(C)cc(NCc3cccc4ccccc34)c2c1 | 217 | 
17 | Cc1nc2ccc(-c3nc4cc(N)ccc4[nH]3)cc2[nH]1 | 233 | 
18 | CCN(CC)c1ccccc1CNC(=O)c1cc(Cl)c(N)cc1OC | 213 | 
19 | CCCOc1ccccc1-c1nc2[nH]c3c(c2c(=O)[nH]1)CCN(C)C3 | 367 | 
20 | Cc1c(CNCCCNc2cc(=O)c3ccccc3[nH]2)sc(C(F)=C(F)F)c1Br | 836 | 
21 | c1ccc(Oc2ccc(Nc3ccnc4cc(-c5ccc(CNCCN6CCOCC6)o5)ccc34)cc2)nc1 | 1440 | 
22 | COc1cc2cc(Cc3cnc(N)nc3N)ccc2c(OC)c1OC | 239 | 
23 | COc1ccc(NC(=O)c2cn(-c3ccc(C(C)(C)C)cc3)nc2C)cc1N1CCN(C)CC1 | 949 | 
24 | CCOC(=O)NC1=NC(C)(C)N(OCc2cccc3c2ccc2ccccc23)C(NC(=O)OCC)=N1 | 172 | 
25 | CN(C)Cc1ccc(-c2cc3c(-c4ccc(CN(C)C)cc4)ccnc3[nH]2)cc1 | 887 | 

Row | Structure (SMILES) | XC50 (Plasmodium falciparum, 3D7) [nM] | XC50
26 | CCCc1cc(Cc2cnc(N)nc2N)cc(OCCCCCC(=O)O)c1OC | 164 | 
27 | O=C(NCCN1CCCCC1)c1cc2cc(-c3ccccc3)ccc2n1S(=O)(=O)c1ccccc1 | 1120 | 
28 | CC(CN)OCn1cnc2c(N)ncnc21 (configuration not stated) | 231 | 
29 | CCN(CC)CCCNc1cc[n+]([O-])c2cc3ccccc3cc12 | 871 | 
30 | O=C(Nc1cccc(F)c1)N1CCC(CN2CCOC(c3ccccc3)(c3ccccc3)C2)CC1 | 198 | 
31 | CN1CCC(NCc2ccc(-c3ccc(S(=O)(=O)NCc4ccccc4)s3)cc2)CC1 | 765 | 
32 | COCCN1CCN(Cc2ccc(-c3ccc(-c4nc5cc(F)ccc5[nH]4)cc3)cc2)CC1 | 717 | 
33 | O=C(NCc1cccnc1)C(c1cc2ccccc2o1)N1CCN(C(c2ccccc2)c2ccccc2)CC1 (configuration not stated) | 713 | 
34 | CCCCn1c(-c2ccco2)nc2c(c(=O)c3ccccc3n2C)c1=O | 1240 | 
35 | CC[C@H]1CN2CC[C@H]1C[C@@H]2[C@H](O)c1ccnc2ccc(O)cc12 | 1040 | 
36 | NC(=O)c1cc2nc(NC3CCC3)nc(Nc3cccc4[nH]ncc34)c2[nH]1 | 732 | 
37 | COc1ccc2[nH]c(C)cc(=NN=Cc3ccc(Cl)cc3)c2c1 | 228 | 
38 | COc1ccccc1NC(=O)Nc1cccc(-c2cccc(-c3nc4cc(C(F)(F)F)ccc4[nH]3)c2)c1 | 120 | 
39 | O=C(/C=C/c1ccc(Cl)c(Cl)c1)NC1CCC(CN2CCC(c3c[nH]c4cc(C(F)(F)F)ccc34)CC2)CC1 (configuration not stated) |  | 278 nM and 897 nM
40 | Clc1ccc(OCc2ccccc2)c(-c2nc(-c3nc4ncc(Br)cc4[nH]3)cs2)c1 | 214 | 
41 | Cc1ccc(CCNCC(O)c2cccc(C(F)(F)F)c2)cc1 (configuration not stated) | 868 | 
42 | O=C(Cc1ccc(-n2cnnn2)cc1)N(Cc1cncn1Cc1cccc(C(F)(F)F)c1)CC1CC1 | 962 | 
43 | O=C(NCC(CCN1CCC(c2c[nH]c3ccccc23)CC1)c1ccccc1)Nc1ccc(Cl)c(Cl)c1 (configuration not stated) | 833 | 
44 | O=C(NCCCN1CCC(Cc2ccccc2)CC1)c1cc2c(Cl)nc3ccccc3c2s1 | 744 | 
45 | O=c1cc(NCCCNCc2cc(C(F)(F)F)ccc2Cl)[nH]c2ccccc12 | 1020 | 
46 | Cc1ccccc1Cn1ccc2c3c(N)nc(N)nc3ccc21 | 3.2 | 
47 | CCN(CC)CCNC(=O)c1ccc(NC(=O)c2cn(-c3ccccc3)nc2-c2cccs2)cc1 | 258 | 
48 | Fc1ccc(Nc2ccnc3cc(-c4cccc(CNCCN5CCOCC5)c4)ccc23)c(Cl)c1 | 142 | 
49 | O=C(/C=C/c1ccc(I)cc1)NCCCCCN1CCC(c2c[nH]c3ccccc23)CC1 | 836 | 
50 | COc1ccc(NC(=O)NC2CCN(CCCCCNC(=O)/C=C/c3ccc(Cl)c(Cl)c3)CC2)cc1 | 1010 | 

Row | Structure (SMILES) | XC50 (Plasmodium falciparum, 3D7) [nM] | XC50
51 | N=C(N)Nc1cccc(NC(=O)Nc2cccc(NC(=N)N)c2)c1 | 258 | 
52 | CCN(CCCN1CCCCC1)c1cc(C)nc(Nc2cccc3c2CCCC3)n1 | 1030 | 
53 | CCN(CC)CCN(Cc1ccc(-c2ccc(C#N)cc2)cc1)C(=O)Cn1c(CCc2cccc(F)c2F)nc(=O)c2ccccc21 | 5.97 | 
54 | O=C(COC(=O)c1cccc(S(=O)(=O)N2CCc3ccccc32)c1)NNC(=O)c1cccs1 | 1250 | 
55 | CN(C)CCOc1cc(NC(=O)Nc2ccc(Cl)cc2C(F)(F)F)ccc1I | 930 | 
56 | COc1cc(N)cc2sc(N)nc12 | 251 | 
57 | COc1ccccc1-c1ccc2nnc(SCC(=O)Nc3ccc4c(c3)OCCO4)n2n1 | 716 | 
58 | Cc1nc2nc(N)nc(N)c2c(C)c1Cc1ccc(N)cc1 | 644 | 
59 | N=C1c2ccccc2CN1CC(=O)c1ccc(Cl)c(Cl)c1 | 728 | 
60 | Cc1ccc2nc(C)cc(N/N=C/c3ccccc3[N+](=O)[O-])c2c1 | 166 | 
61 | COc1ccc2c(=O)c(I)c(C)[nH]c2c1 | 440 | 
62 | CNc1ccc(CNCc2ccc(-c3ccc(-c4nc5cc(F)ccc5[nH]4)cc3)cc2)cc1 | 210 | 
63 | CC1(C)CCC(C)(C)c2c1ccc(C1CCN(CCCCNC(=O)c3ccc(-c4ccc(Cl)cc4)cc3)CC1)c2O | 477 | 
64 | CCC1CN(S(=O)(=O)c2ccc3c(c2)NC(=O)CC(=O)N3)c2cc(Cl)ccc2O1 (configuration not stated) | 656 | 
65 | CCNc1cc(C(=O)N[C@@H](Cc2ccccc2)[C@H](O)CNC2(CC(C)C)CC2)cc(N2CCCCS2(=O)=O)c1 | 1020 | 
66 | c1ccc2[nH]c(-c3ccc(-c4ccc(CNCCc5ccncc5)cc4)s3)nc2c1 | 158 | 
67 | Cc1c(CNCCCNc2cc(=O)c3ccccc3[nH]2)sc(-c2ccco2)c1Br | 1020 | 
68 | COc1ccc2[nH]cc(C3CCN(Cc4ccc(NC(=O)c5ccc(-c6ccccc6)cc5)cc4)CC3)c2c1 | 765 | 
69 | COc1ccc(-c2cccc(NC(=O)c3ccc(Cl)cc3)c2)cc1CN1CCNCC1 | 840 | 
70 | CCOC(=O)c1cc(Cl)ccc1OCCCON1C(=N)N=C(N)NC1(C)C | 3.2 | 
71 | CCN(CC)CCN1C(=O)c2oc3ccc(Cl)cc3c(=O)c2C1c1ccc(SC)cc1 (configuration not stated) | 1060 | 
72 | O=C(/C=C/c1ccc(-c2nc3ccc(Cl)cc3[nH]2)cc1)NCc1cccc(F)c1 | 640 | 
73 | O=C(/C=C/c1ccc(Cl)c(Cl)c1)NCCCCCN1CCCN(C(=O)Nc2ccc(Cl)c(Cl)c2)CC1 | 864 | 
74 | Cc1ccccc1C1CCN(c2ncc(C(=O)Nc3ccccc3)cc2Cl)CC1 | 1010 | 
75 | Cc1c(Cl)cccc1S(=O)(=O)Nc1ccc(CCN2CCC(N)CC2)cc1 | 1460 | 

Row | Structure (SMILES) | XC50 (Plasmodium falciparum, 3D7) [nM] | XC50
76 | COc1cccc(-c2c(C#N)c(N)nc3c2c(C)nn3-c2ccccc2)c1O | 282 | 
77 | COc1ccc(NC(=O)/C=C/c2ccc(Cl)c(Cl)c2)cc1N1CCN(C)CC1 | 980 | 
78 | Cc1ccc(CON2C(N)=NC(N)=NC2(C)C)c(Cl)c1.Cc1ccc(CON2C(N)=NC(N)=NC2(C)C)cc1Cl | 3.2 | 
79 | COc1cc(F)c2nccc([C@@H](O)CN3CCC(NCc4nc5cccc(F)c5[nH]4)CC3)c2c1 | 847 | 
80 | Cc1cc(N[C@@H](CC(C)C)C(=O)NC2CCCC2)nc(NCc2ccccc2C)n1 | 1340 | 
81 | Cc1ccc(CNC(=O)c2cc3c(=O)n4ccccc4nc3n(CCCN3CCOCC3)c2=N)cc1 | 1090 | 
82 | Cc1cccc2nc(-c3ccc(-c4cccc(NC(=O)Cc5c[nH]cn5)c4)cc3)[nH]c12 | 903 | 
83 | CC(C)N(Cc1ccc(-c2ccc(C(F)(F)F)cc2)cc1)C(=O)Cn1c(CCc2cccc(F)c2F)cc(=O)c2ccc(CCCN3CCCCC3)cc21 | 736 | 
84 | CCCNCc1ccc(-c2ccc(CN(CCOC)C(=O)c3ccco3)cc2)nc1 | 997 | 
85 | COc1ccc(NC(=O)[C@H](CC(C)C)Nc2cc(C)nc(NCC3CCCCC3)n2)cc1 | 1100 | 
86 | O=C(Nc1ccc(-c2ccccc2)cc1)Nc1ccc2c(c1)CCNCC2 | 348 | 
87 | CC(C)c1ccc(NC(=O)c2ccc(CN3CCCN(CC4CCCCC4)CC3)cc2)cc1 | 615 | 
88 | CCCC(C)Nc1nc(C)cc(N[C@@H](Cc2ccccc2)C(=O)NCCOc2ccccc2)n1 (some centres not stated) | 699 | 
89 | Cc1ccc(CNC(=O)[C@H](Cc2ccccc2)Nc2cc(C)nc(Nc3ccccc3)n2)cc1 | 853 | 
90 | COc1ccc2[nH]c3ccccc3c(=O)c2c1 | 1000 | 
91 | COc1ccc2c(c1)CCN(CCN1CCC(CNC(=O)c3ccc(-c4ccc(C#N)cc4)cc3)CC1)C2 | 617 | 
92 | Cc1cccc2nc(-c3ccc(-c4cccc(CN5CCN(c6ccncc6)CC5)c4)cc3)[nH]c12 | 117 | 
93 | Cc1c(F)cc(C(=O)NC2CC2)cc1-c1ccc2c(cnn2S(=O)(=O)c2ccc(C#N)cc2)c1 | 100 | 
94 | O=C(NCCCCN1CCC(c2ccc3c(c2OCC2CC2)CCCC3)CC1)c1ccc(NC(=O)c2ccc(Cl)cc2)cc1 | 680 | 
95 | CN(C)c1ccc(-c2nnc(Sc3ccc(C#N)c([N+](=O)[O-])c3)n2Cc2ccco2)cc1 | 854 | 
96 | CNC(=O)c1cnc(Nc2ccc(OCC(O)CN(C)C)cc2)nc1Nc1cccc(OC(C)C)c1 (configuration not stated) | 137 | 
97 | COc1ccc(S(=O)(=O)NC2CCN(c3cc(C)nc(Nc4cccc(C#N)c4)n3)CC2)cc1 | 946 | 
